Results reported in patent US20070031356A1, “Beta-carotene modulation of gene expression” (priority 2005, published 2007).
Several values for one entry are separate records, joined by “and”; a condition that tells them apart may be missing. Identical values can stand only once. Entries after “also recorded” stand apart in the source; their conditions may differ.

Legend:
[1] = cited from earlier work
[2] = β-carotene concentration in culture medium during incubation; type: physicochemical; conditions: during the 24 hours of incubation, irrespective of the presence of cells
Description: (§1) β-carotene-containing medium was prepared as follows. Fresh all-E-β-carotene (DSM Nutritional Products, Kaiseraugst, Switzerland) stock solution in THF (containing 0.025% BHT; Fluka Chemie AG, Switzerland) was diluted 1:2 with ethanol and added to cell culture medium to a final concentration of 1.5 μM β-carotene. The solvent concentration in the medium was 0.5% for all treatments. β-carotene-containing medium was prepared fresh for the daily medium changes.

[3] = test system: caspase-3; experiment: Caspase-3 activity (CaspACE Assay System); type: cell-based, human
Description: Cells were supplemented with β-carotene for 2 days and prior to UVA irradiation (270 kJ/m^2). Caspase-3 activity was determined at 5 hours after irradiation. Values are mean±standard error of an experiment with four replicates.
Caspase-3 activity 5 hours after UVA irradiation was quantified in five separate experiments using the CaspACE™ Assay System (Promega/Catalys, Switzerland).

[4] = β-carotene supplementation, rodents (e.g. Mathews-Roth, 1982); cited from earlier work
[5] = test system: HaCaT cells; experiment: TaqMan QRT-PCR of key genes; type: cell-based, human
Description: Cells were supplemented with β-carotene for 2 days prior to UVA irradiation (270 kJ/m^2) either in normal PBS or D2O-PBS. Gene expression 5 hours after irradiation was determined by quantitative real time polymerase chain reaction. (“QRT-PCR”). Values are geometric mean±standard error of three experiments.
Key gene regulation was confirmed in three independent cell irradiation experiments using TaqMan® QRT-PCR as described (Wertz, 2004). In these experiments, cells were pretreated with 0.5, 1.5, or 3 μM β-carotene, to analyze for dose-dependent β-carotene effects. In addition, cells were irradiated either in D2O-containing PBS or in H2O-containing PBS, to analyze for the ^1O2 inducibility of genes.

[6] = test system: HaCaT cells; conditions: cited from earlier work
[7] = test system: HaCaT human keratinocytes; experiment: Affymetrix GeneChip microarray, gene regulation by β-carotene and/or UVA; type: cell-based
Description: UVA exposure is thought to cause skin aging mainly by singlet oxygen (^1O2)-dependent pathways. Using microarray hybridization the effect of pretreatment with the ^1O2 quencher β-carotene (1.5 μM) on prevention of UVA-induced gene regulation in HaCaT human keratinocytes was explored.
The cell culture experiments were carried out as described (Wertz, 2004). Briefly, a subclone of passage 65 HaCaT keratinocytes, selected for differentiation capacity, was used at passages 16 to 23 after subcloning. 2×10^5 cells were seeded per 60 millimeter dish. Starting the following day, the cells were pretreated for 2 days with β-carotene at 1.5 μM, a typical concentration in human plasma after moderate dietary supplementation (Thurmann, 2002).
as §1
On day 3 of the experiment, the cells were irradiated with a Hönle sun lamp Sol 500 (270 kJ/m^2; Dr. Hönle, Germany).
Five independent, factorially designed cell irradiation experiments were analyzed by microarray hybridization. For each experiment, one chip was hybridized per treatment condition. GeneChip® analysis was done as described in Siler, 2004, which is incorporated by reference as if recited in full herein. Gene regulation by β-carotene and/or UVA was calculated relative to placebo.
Changes in gene expression were included in further analysis only if the change factor was ≧0.5 or ≦−0.5, and if unpaired t-tests yielded p values ≦0.05. Upregulations by a change factor of ≧0.5 are labeled bold, downregulations by a change factor of ≦−0.5 are labeled bold italics. (Table 1.) To identify the pathways affected by the treatments functional information on the genes was retrieved from public literature databases.

[8] = UVA 270 kJ/m^2, 5 hours after irradiation
[9] = UVA 270 kJ/m^2 after 1.5 μM 2 days, vs placebo
[10] = unirradiated, 1.5 μM 2 days, vs placebo

## CC1=C(/C=C/C(C)=C/C=C/C(C)=C/C=C/C=C(C)/C=C/C=C(C)/C=C/C2=C(C)CCCC2(C)C)C(C)(C)CCC1 [β-Carotene, all-E-β-carotene]
[1]; (Fuller, 1992)
  UV-induced immune suppression: prevents
[1]; β-carotene supplementation, humans (Garmyn, 1995)
  number of sunburn cells: did not alter
[1]; β-carotene supplementation, literature studies
  sunburn erythema after sun exposure: alleviates; also recorded: mild reduction; also recorded: mildly reduces
[2]
  β-carotene concentration in medium dropped to: approximately 50%
[3]; unirradiated cells, β-carotene alone
  caspase-3 activity / apoptosis: not sufficient to induce apoptosis; also recorded: Neither UVA nor β-carotene alone activated caspase-3
[3]; β-carotene 2 days then UVA 270 kJ/m^2, 5 hours after irradiation
  caspase-3 activity: dose-dependent induction of caspase-3 activity
[4]
  skin carcinogenesis: reduced
[5]; [8]
  UVA-induced GADD34 transcription (QRT-PCR): enhancement
  UVA-induced GADD153 transcription (QRT-PCR): enhancement
[5]; UVA/D2O
  MMP-10 induction by UVA/D2O: dose-dependently inhibited
[5]; irradiated and unirradiated HaCaT cells, 5 hours after irradiation
  integrinα6 transcription (QRT-PCR): confirmed downregulation; also recorded: inhibition
[6]; (Wertz, 2004)
  UVA induction of MMP-3: downregulated
  basal and 1O2-induced expression of MMP-1: reduced
[6]; unirradiated (Wertz, 2004)
  basal MMP-1 expression: mildly reduces
  basal expression of MMP-10, QRT-PCR in independent experiments: confirmed
[7]; [9]
  BPAG1; bullous pemphigoid antigen (M69225) change factor: Downregulation
  C-FOS (V01512) change factor: 1.36
  ERF-2 (X78992) change factor: enhanced
  GADD34 (U83981) change factor: enhanced
  GADD153 (S62138) change factor: upregulation; also recorded: enhanced
  IGF-BP 3; insulin-like growth factor-binding protein-3 gene (M35878) change factor: 1.73
  IL6; Interleukin 6; IFNβα2a (X04430) change factor: enhanced
  ILK; integrin-linked kinase (U40282) change factor: Downregulation
  JUND (X56681) change factor: 1.83 and 1.66
  KLF4; EZF (epithelial Zn finger) (U70663) change factor: upregulation
  Lekti (AJ228139) change factor: upregulated
  MMP10 (X07820) change factor: inhibited
  PAR-2; proteinase activated receptor-2 (U34038) change factor: 1.34
  TDAG51; PQ-rich protein; PHLDA1 (Z50194) change factor: enhanced
  TRIP14; ′2-5′ oligoadenylate synthetase (AJ225089) change factor: 0.67
  c-myc (V00568) change factor: 2.45
  connexin 31 (AF099730) change factor: upregulation
  connexin 45 (U03493) change factor: Downregulation
  integrin α6 (X53586) change factor: Downregulation
  serpinB1 (M93056) change factor: upregulated
[7]; UVA + β-carotene
  number of genes regulated by co-treatment with UVA radiation and β-carotene: 1142 genes
[7]; UVA-irradiated keratinocytes
  UVA induction of PAR-2: further increased
  UVA upregulation of IFNα/Iβ targets: reduced
  UVA upregulation of VEGF: reduced
[7]; UVA/β-carotene treatment
  desmocollins gene regulation: Downregulation
[7]; all treatments
  TIMP-1 gene regulation: not influenced
[7]; of 568 UVA-regulated genes
  UVA-regulated genes for which β-carotene enhanced the UVA effect: 180 genes
  UVA-regulated genes for which β-carotene had no effect: 245 genes
  UVA-regulated genes for which β-carotene reduced the UVA-induced effect: 143 genes
[7]; of the 1142 genes
  co-treatment-regulated genes not regulated by only UVA or β-carotene alone: 610 genes
[7]; unirradiated keratinocytes
  Bax gene regulation: upregulated
  JUN-B gene regulation: downregulated
  VEGF gene regulation: mildly downregulated
[7]; [10]
  BMP2a; bone morphogenetic protein 2a (bmp-2a) (M22489) change factor: downregulated
  BPAG1; bullous pemphigoid antigen (M69225) change factor: decreased
  BUB1; mitotic checkpoint kinase (AF053305) change factor: downregulated
  COX-2, cyclooxygenase-2 (U04636) change factor: mildly downregulated
  DNA ligase III (X84740) change factor: downregulated
  EGFR; precursor of epidermal growth factor receptor (X00588) change factor: downregulated
  ENDOGL-2 (AB020735) change factor: upregulated
  FRA-2 (X16706) change factor: downregulated
  GEM (U10550) change factor: downregulated
  HOXD4 (X59373) change factor: downregulated
  ID-2H (D13891) change factor: downregulated
  IGF-BP 3; insulin-like growth factor-binding protein-3 gene (M35878) change factor: 0.22
  IL6; Interleukin 6; IFNβα2a (X04430) change factor: upregulated
  IL18; IGIF (IFNγ inducing factor) (D49950) change factor: downregulated
  IRF-9; p48; ISGF3γ; Interferon-stimulated transcription factor 3γ (M97935) change factor: −0.18
  KRS-2; stress responsive serine/threonine protein kinase (U60207) change factor: downregulated
  MMP10 (X07820) change factor: reduced
  NCF2; p67-phox; neutrophil oxidase factor (M32011) change factor: downregulated
  NOTCH3 (U97669) change factor: downregulated
  NRF2, subunit beta 1 (U13045) change factor: downregulated
  RETSDR1; retinal short-chain dehydrogenase/reductase (AF061741) change factor: induced
  RPA; replication protein A 14kda subunit (rpa) (L07493) change factor: −0.04
  Requiem (AF001433) change factor: upregulated
  SMAD1 (U59423) change factor: −0.27
  TIEG, EGRα (AF050110) change factor: downregulated; also recorded: downregulation
  TLR3; toll-like receptor 3 (U88879) change factor: upregulated
  TRIP14; ′2-5′ oligoadenylate synthetase (AJ225089) change factor: −0.07
  TSSC3/IPL (AF001294) change factor: downregulation
  WNT5A (I20861) change factor: downregulated
  collagen type IV, α-5 (COL4A5) (M58526) change factor: decreased
  integrin α6 (X53586) change factor: decreased
  keratin 15 (J00124) change factor: decreased
[7]; β-carotene alone, change factor ≧0.5 or ≦−0.5, p ≦0.05
  number of genes regulated by β-carotene: 381 genes
